Results published in article PMC12366525, “Characterization of allosteric modulators that disrupt androgen receptor co-activator protein-protein interactions to alter transactivation–Drug leads for metastatic castration resistant prostate cancer” (SLAS discovery : advancing life sciences R & D, 2023).

What was measured:
[1] = target: T1, AR-LBD::TIF2-Box III-LXXLL-Peptide (Homo sapiens, UniProt P10275); experiment: AR-LBD::TIF2-Box III-LXXLL-peptide AlphaScreen binding assay; conditions: DHT-induced TIF2 box 3 LXXLL-peptide binding to recombinant AR-LBD
T1 construct: The pET28a-AR-LBD (622–919) construct [78] was a gift; made in house
T1 sequence (P10275 622-919): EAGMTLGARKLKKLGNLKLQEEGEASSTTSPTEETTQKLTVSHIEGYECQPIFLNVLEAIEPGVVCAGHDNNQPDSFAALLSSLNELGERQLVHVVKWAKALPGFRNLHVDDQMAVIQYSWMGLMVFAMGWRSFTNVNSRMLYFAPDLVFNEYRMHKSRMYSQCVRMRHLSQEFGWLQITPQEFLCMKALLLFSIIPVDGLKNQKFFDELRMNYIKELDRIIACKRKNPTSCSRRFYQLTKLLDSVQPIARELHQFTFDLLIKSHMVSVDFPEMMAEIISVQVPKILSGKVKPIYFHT
Description: The pET28a-AR-LBD (622–919) construct was a gift from Dr. Fletterick and Dr. Nguyen of University of California San Francisco. Biotinylated (Biotin-HN-[…]-CONH2) and non-biotinylated TIF2-box-III (738–756) peptide (H2N-[…]-CONH2) were synthesized by the Peptide & Peptoid Synthesis Facility, at the University of Pittsburgh Health Sciences Core Research Facilities. ALPHAScreen streptavidin donor beads (SA-DB) and nickel chelate acceptor beads (Ni-AB) were purchased from Perkin Elmer (Waltham, MA). The assay was performed in 384-well white opaque plates (Greiner BioOne, #781080). […] 18 uL of the SA-DB bound biotinylated TIF2 peptide mixture was added to the assay plate before 5 μL of compounds were transferred into assay wells and 27 μL of the AlphaScreen donor and acceptor bead mixture was added to the plate. 32 wells containing 0.5% DMSO provided maximum controls and 32 wells containing a 500-fold excess of unlabeled TIF2-box-III (75 μM) were used as minimum controls. The combined bead-protein-peptide-compound mixture was incubated for 1 h at room temperature in the dark, and then the RLU’s were acquired at 520 nm after excitation at 680 nm on an Envision plate reader (Perkin Elmer, Waltham, MA) as described previously.

AR-V7 = target: T2, AR-V7 (Homo sapiens, UniProt P10275); experiment: UBE2C promoter driven luciferase reporter assay in PC3-AR-V7-GFP cells; type: cell-based; conditions: constitutive, 24 h; read-out: PC-3-ARV7-GFP UBE2C-Luc Reporter IC50
T2 construct: expressed in transfected cells; host or cells: PC3 cells stably expressing AR-V7-GFP
T2 sequence (P10275 1-644 isoform P10275-3): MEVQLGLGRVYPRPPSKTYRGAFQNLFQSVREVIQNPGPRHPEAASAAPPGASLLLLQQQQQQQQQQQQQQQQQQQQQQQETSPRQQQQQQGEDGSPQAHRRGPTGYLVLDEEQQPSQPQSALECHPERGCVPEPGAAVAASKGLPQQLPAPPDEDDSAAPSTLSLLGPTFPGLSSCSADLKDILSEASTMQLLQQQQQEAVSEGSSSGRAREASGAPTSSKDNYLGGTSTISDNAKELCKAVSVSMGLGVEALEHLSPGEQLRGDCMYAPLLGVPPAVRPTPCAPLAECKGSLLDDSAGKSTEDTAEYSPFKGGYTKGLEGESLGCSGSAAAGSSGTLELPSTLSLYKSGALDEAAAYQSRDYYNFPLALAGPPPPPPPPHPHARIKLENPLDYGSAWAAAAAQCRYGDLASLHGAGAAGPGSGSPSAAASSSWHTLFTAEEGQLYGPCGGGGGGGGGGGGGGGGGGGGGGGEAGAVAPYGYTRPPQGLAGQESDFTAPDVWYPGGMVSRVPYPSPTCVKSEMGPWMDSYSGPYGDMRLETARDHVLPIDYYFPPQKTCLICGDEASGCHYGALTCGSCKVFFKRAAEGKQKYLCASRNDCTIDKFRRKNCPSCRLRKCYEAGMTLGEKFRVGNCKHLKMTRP
Procedure: The pGL4.28-UBE2C 20bpX3 luciferase reporter plasmid was provided by Dr. Yan Dong from Tulane University. Fugene HD and the UBE2C-Luc plasmid (10 ng/well) were combined at a 3:1 (μL:μg) ratio, in Opti-MEM and incubated for 25 min at RT before being added to PC3-AR-V7-GFP cells that were suspended in RPMI 1640 (Gibco) media containing 1% L-glutamine (Invitrogen), and 10% fetal bovine serum (Gemini Bio-products). Bulk transfected PC3-AR-V7-GFP cells were seeded into white opaque 384-well assay plates (Greiner Bio-one, #781080) at a density of 3000 cell per well in a volume of 40 μL and incubated at 5% CO2, 37 °C, and 95% humidity for 24 h. After 24 h, 10 μL of compounds were transferred to assay wells and the plates were returned to the incubator for an additional 24 h before 25 μL of BrightGlo luciferase reagent (Promega) was added to the wells and the RLU’s were captured on a SpectraMax M5e plate reader (Molecular Devices LLC) as described previously.

Structure (SMILES)	IC50 [1] [µM]	IC50 (AR-V7) [µM]
Cc1ccccc1-c1cc(O)c2c(c1)CN(c1nc(C(N)=O)cs1)CCO2 [S1–1]	21.4	34.7
Cc1ccccc1-c1cc(O)c2c(c1)CN(c1nccs1)CCO2 [S1–3]	44.1	
Cc1c(-c2ccccc2F)[nH]c2ccc(CNC(=O)CCc3cn[nH]c3)cc12 [S3–11]	88.3	21
Cc1c(-c2ccccc2F)[nH]c2ccc(CNC(=O)c3ccc(CO)o3)cc12 [S3–14]	28.3	46
Cc1c(-c2ccc(F)cc2)[nH]c2ccc(CNC(=O)c3ccc(CO)o3)cc12 [S3–15]	19.6	18.5

Next, values leading:

IC50 [1] [µM]	IC50 (AR-V7) [µM]	Structure (SMILES)
64.2	14.5	Cc1nsc(NC(=O)N2CCC(Sc3ccccc3C)CC2)n1 [S2–6]
	17.7	Cc1c(-c2ccccc2F)[nH]c2ccc(CNC(=O)CCc3cnccn3)cc12 [S3–12]
91.6		CC(=O)NCCC(=O)NCc1ccc2[nH]c(-c3ccccc3F)c(C)c2c1 [S3–13]
